Assay results taken from patent US6960597B2, “Aza-bridged-bicyclic amino acid derivatives as α4 integrin antagonists” (Orth-McNeil Pharmaceutical, Inc., priority 2000, dated 2005).
Read-outs that look alike come from different tables or passages of the source.

Legend:
human α4β7 = target: T1, human α4β7 (Homo sapiens, UniProt P13612+P26010); assay: α4β7-K562 Cell Adhesion Assay (α4β7 Mediated Adhesion/VCAM-1); assay type: cell-based
T1 construct: expressed in transfected cells
T1 sequence (P13612 34-1032): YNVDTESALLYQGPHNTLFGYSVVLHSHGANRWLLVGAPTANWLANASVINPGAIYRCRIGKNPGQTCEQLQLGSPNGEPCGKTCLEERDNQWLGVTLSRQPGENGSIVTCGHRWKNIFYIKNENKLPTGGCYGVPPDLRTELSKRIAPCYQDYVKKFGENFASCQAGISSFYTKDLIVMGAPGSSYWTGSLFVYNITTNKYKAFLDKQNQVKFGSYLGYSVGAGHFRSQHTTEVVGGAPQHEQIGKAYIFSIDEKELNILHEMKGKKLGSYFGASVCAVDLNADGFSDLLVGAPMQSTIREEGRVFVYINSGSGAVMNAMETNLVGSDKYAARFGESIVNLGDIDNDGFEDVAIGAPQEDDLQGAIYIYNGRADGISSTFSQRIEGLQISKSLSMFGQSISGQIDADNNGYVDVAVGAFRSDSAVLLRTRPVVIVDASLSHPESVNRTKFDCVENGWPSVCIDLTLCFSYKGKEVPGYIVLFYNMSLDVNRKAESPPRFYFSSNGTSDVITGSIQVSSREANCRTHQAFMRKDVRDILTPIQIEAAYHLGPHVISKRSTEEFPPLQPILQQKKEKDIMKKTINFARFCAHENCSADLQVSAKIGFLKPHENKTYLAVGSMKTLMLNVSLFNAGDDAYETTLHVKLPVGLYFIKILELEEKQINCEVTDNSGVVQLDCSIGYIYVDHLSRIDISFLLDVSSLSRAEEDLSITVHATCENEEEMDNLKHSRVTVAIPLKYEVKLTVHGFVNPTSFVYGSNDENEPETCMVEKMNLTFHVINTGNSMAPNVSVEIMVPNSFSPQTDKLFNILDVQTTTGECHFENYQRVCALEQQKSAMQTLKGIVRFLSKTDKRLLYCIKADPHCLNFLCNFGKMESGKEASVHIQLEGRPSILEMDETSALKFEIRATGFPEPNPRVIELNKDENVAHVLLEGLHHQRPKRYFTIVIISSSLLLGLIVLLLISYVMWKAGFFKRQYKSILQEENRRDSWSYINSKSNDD
T1 sequence (P26010 20-798): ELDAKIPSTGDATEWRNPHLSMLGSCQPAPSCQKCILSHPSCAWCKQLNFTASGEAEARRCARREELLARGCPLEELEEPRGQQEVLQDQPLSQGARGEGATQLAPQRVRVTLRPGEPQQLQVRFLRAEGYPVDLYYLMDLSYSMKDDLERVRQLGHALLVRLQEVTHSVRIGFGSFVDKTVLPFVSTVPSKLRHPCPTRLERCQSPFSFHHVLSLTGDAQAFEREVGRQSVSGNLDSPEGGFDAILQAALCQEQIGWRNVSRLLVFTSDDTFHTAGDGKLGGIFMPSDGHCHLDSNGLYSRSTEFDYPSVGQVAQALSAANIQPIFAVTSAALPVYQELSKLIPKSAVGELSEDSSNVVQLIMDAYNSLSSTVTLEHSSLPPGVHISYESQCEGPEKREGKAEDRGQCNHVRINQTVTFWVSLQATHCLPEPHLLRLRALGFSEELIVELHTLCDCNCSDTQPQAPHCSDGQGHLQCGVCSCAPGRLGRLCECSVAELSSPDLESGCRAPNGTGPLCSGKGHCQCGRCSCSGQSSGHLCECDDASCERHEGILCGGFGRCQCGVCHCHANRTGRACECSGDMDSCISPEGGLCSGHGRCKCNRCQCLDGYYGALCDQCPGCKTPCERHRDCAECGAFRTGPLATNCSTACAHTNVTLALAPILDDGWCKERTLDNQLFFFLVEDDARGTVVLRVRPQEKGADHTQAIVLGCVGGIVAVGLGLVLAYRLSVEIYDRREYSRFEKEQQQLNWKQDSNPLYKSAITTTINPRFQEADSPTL
Experimental: α4β7-K562 Cell Adhesion Assay (α4β7 Mediated Adhesion/VCAM-1)
(§1) Immulon 96 well plates (Dynex) were coated with 100 μL recombinant hVCAM-1 at 4.0 μg/mL in 0.05 M NaCO3 buffer pH 9.0 overnight at 4° C. (R&D Systems). Plates were washed 3 times in PBS with 1% BSA and blocked for 1 h @ room temperature in this buffer. PBS was removed and compounds to be tested (50 μL) were added at 2× concentration. A stable cell line of K562 cells expressing human α4β7, (50 μL at 2×10^6/mL) labeled with 5 μM Calcein AM (Molecular Probes) for 1 h at 37° C., were added to each well and allowed to adhere for 1 h at room temperature. Plates were washed 3× in PBS+1% BSA and cells were lysed for 15 minutes in 100 μL of 1 M Tris pH 8.0 with 1% SDS. The plate was read at 485 nm excitation and 530 nm emission.

α4β1 integrin receptor = target: T2, α4β1 integrin receptor (Homo sapiens, UniProt P05556+P13612); assay: Ramos Cell Adhesion Assay (α4β1 Mediated Adhesion/VCAM-1); assay type: cell-based
T2 construct: Ramos Cell Adhesion Assay (α4β1 Mediated Adhesion/VCAM-1); endogenous in cells; host or cells: Ramos cells
Experimental: Ramos Cell Adhesion Assay (α4β1 Mediated Adhesion/VCAM-1)
as §1, with “Ramos cells,” for “A stable cell line of K562 cells expressing human α4β7,”

[1] = Table I, racemic mixtures and resolved (S,S) and (R,S) diastereomers, read-out: Antagonist IC50 Activity α4β7
[2] = Table I, racemic mixtures and resolved (S,S) and (R,S) diastereomers, read-out: Antagonist IC50 Activity α4β1
[3] = Table III, read-out: Inhibition of Binding of Ramos Cells to Immobilized VCAM-1 IC50
[4] = Table IV, μM, read-out: Inhibition of Binding of K562 Cells to Immobilized VCAM-1 IC50
[5] = Table III, μM, read-out: Inhibition of Binding of Ramos Cells to Immobilized VCAM-1 IC50
[6] = Table IV, read-out: Inhibition of Binding of K562 Cells to Immobilized VCAM-1 IC50

T2 sequence (P05556 21-798, one chain of several): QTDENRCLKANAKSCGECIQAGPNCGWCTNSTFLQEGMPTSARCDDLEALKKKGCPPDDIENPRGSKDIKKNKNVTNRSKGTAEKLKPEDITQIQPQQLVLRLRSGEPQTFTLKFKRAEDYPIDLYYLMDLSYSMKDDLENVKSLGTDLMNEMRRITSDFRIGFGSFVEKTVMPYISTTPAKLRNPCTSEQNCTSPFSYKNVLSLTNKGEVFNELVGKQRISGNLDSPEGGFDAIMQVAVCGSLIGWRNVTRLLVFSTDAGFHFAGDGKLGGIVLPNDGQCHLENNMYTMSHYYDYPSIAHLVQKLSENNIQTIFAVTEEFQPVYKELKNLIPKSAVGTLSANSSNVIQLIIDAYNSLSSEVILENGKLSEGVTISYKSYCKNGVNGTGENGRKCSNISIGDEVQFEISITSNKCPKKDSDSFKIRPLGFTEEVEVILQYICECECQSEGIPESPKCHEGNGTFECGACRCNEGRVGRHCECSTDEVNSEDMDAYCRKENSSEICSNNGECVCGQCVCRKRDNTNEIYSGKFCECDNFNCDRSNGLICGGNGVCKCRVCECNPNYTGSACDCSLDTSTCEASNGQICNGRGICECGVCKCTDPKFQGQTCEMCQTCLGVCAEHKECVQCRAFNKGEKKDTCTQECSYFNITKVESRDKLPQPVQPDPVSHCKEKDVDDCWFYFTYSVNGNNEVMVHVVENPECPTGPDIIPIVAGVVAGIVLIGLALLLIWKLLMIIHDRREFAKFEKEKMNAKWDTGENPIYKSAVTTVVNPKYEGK

| SMILES | IC50 (human α4β7; [1]) [µM] | IC50 (α4β1 integrin receptor; [2]) [µM] | IC50 (α4β1 integrin receptor; [3]) [µM] | IC50 (human α4β7; [4]) [µM] | IC50 (α4β1 integrin receptor; [5]) [µM] | IC50 (human α4β7; [6]) [µM] |
| --- | --- | --- | --- | --- | --- | --- |
| O=C(O)[C@H](Cc1ccc(N2C(=O)c3ccccc3C2=O)cc1)NC(=O)[C@@H]1C2CCC(CC2)N1S(=O)(=O)c1ccccc1 [Cpd 47a, 4-(1,3-dihydro-1,3-dioxo-2H-isoindol-2-yl)-N-[[(3S)-2-(phenylsulfonyl)-2-azabicyclo[2.2.2]oct-3-yl]carbonyl]-L-phenylalanine] | 0.102 | 0.026 | 0.026 | – | – | – |
| CC(C)(C)c1ccc(C[C@H](NC(=O)C2C3CCC(CC3)N2S(=O)(=O)c2ccccc2)C(=O)O)cc1 (stereo partly drawn) [Cpd 58, 4-(1,1-dimethylethyl)-N-[[2-(phenylsulfonyl)-2-azabicyclo[2.2.2]oct-3-yl]carbonyl]-L-phenylalanine] | – | – | 0.523 | > 10 | – | – |
| Cc1ccc(C)n1-c1ccc(C[C@H](NC(=O)C2C3CCC(CC3)N2S(=O)(=O)c2ccccc2)C(=O)O)cc1 (stereo partly drawn) [Cpd 49, 4-(2,5-dimethyl-1H-pyrrol-1-yl)-N-[[2-(phenylsulfonyl)-2-azabicyclo[2.2.2]oct-3-yl]carbonyl]-L-phenylalanine] | – | – | – | > 10 | > 5 | – |
| CC(C)(C)C(=O)Nc1ccc(C[C@H](NC(=O)[C@@H]2C3CCC(CC3)N2S(=O)(=O)c2ccccc2)C(=O)O)cc1 [Cpd 64, 4-[(2,2-dimethyl-1-oxopropyl)amino]-N-[[(3S)-2-(phenylsulfonyl)-2-azabicyclo[2.2.2]oct-3-yl]carbonyl]-L-phenylalanine] | – | – | 0.393 | > 10 | – | – |
| Cc1ccc(S(=O)(=O)N2C3CCC(CC3)C2C(=O)N[C@@H](Cc2ccc(NC(=O)c3ccccc3C)cc2)C(=O)O)cc1 (stereo partly drawn) [Cpd 9, 4-[(2-methylbenzoyl)amino]-N-[[2-[(4-methylphenyl)sulfonyl]-2-azabicyclo[2.2.2]oct-3-yl]carbonyl]-(α^1S)-phenylalanine] | – | – | 0.267 | > 5 | – | – |
| O=C(Nc1ccc(C[C@H](NC(=O)C2C3CCC(CC3)N2S(=O)(=O)c2cccs2)C(=O)O)cc1)c1c(Cl)cncc1Cl (mixture of isomers) [Cpd 71, 4-[[(3,5-dichloro-4-pyridinyl)carbonyl]amino]-N-[[2-(2-thienylsulfonyl)-2-azabicyclo[2.2.2]oct-3-yl]carbonyl]-L-phenylalanine] | 0.03 | 0.009 | 0.007 | – | – | – |
| O=C(Nc1ccc(C[C@H](NC(=O)C2C3CCC(CC3)N2S(=O)(=O)c2ccccc2)C(=O)O)cc1)c1c(F)cc(F)cc1F (stereo partly drawn) [Cpd 43, 4-[(2,4,6-trifluorobenzoyl)amino]-N-[[2-(phenylsulfonyl)-2-azabicyclo[2.2.2]oct-3-yl]carbonyl]-L-phenylalanine] | – | – | 0.103 | – | – | 0.442 |
| Cc1ccc(S(=O)(=O)N2C3CCC(CC3)C2C(=O)N[C@@H](Cc2ccc(NC(=O)c3ccccc3OC(F)(F)F)cc2)C(=O)O)cc1 (some centres unmarked) [Cpd 13] | – | – | 0.119 | > 10 | – | – |
| Cc1ccc(S(=O)(=O)N2C3CCC(CC3)C2C(=O)N[C@@H](Cc2ccc(NC(=O)c3c(Cl)cccc3Cl)cc2)C(=O)O)cc1 (mixture of isomers) [Cpd 1, 4-[(2,6-dichlorobenzoyl)amino]-N-[[2-[(4-methylphenyl)sulfonyl]-2-azabicyclo[2.2.2]oct-3-yl]carbonyl]-L-phenylalanine] | – | – | 0.045 | – | – | 0.142 |
| Cc1ccc(S(=O)(=O)N2C3CCC(CC3)C2C(=O)N[C@@H](Cc2ccc(NC(=O)c3ccccc3Br)cc2)C(=O)O)cc1 (stereo partly drawn) [Cpd 14, 4-[(2-bromobenzoyl)amino]-N-[[2-[(4-methylphenyl)sulfonyl]-2-azabicyclo[2.2.2]oct-3-yl]carbonyl]-L-phenylalanine] | – | – | 0.16 | – | – | 0.913 |
| O=C(Nc1ccc(C[C@H](NC(=O)C2C3CCC(CC3)N2S(=O)(=O)c2ccccc2)C(=O)O)cc1)c1c(Cl)cccc1Cl (mixture of isomers) [Cpd 6, 4-[(2,6-dichlorobenzoyl)amino]-N-[[2-(phenylsulfonyl)-2-azabicyclo[2.2.2]oct-3-yl]carbonyl]-L-phenylalanine] | 0.283 | 0.02 | 0.025 | – | – | – |
| CC(C)(C)Oc1ccc(C[C@H](NC(=O)C2C3CCC(CC3)N2S(=O)(=O)c2ccccc2)C(=O)O)cc1 (stereo partly drawn) [Cpd 45, O-(1,1-dimethylethyl)-N-[[2-(phenylsulfonyl)-2-azabicyclo[2.2.2]oct-3-yl]carbonyl]-L-tyrosine] | – | – | 3.17 | > 10 | – | – |
| Cc1ccc(S(=O)(=O)N2C3CCC(CC3)C2C(=O)N[C@@H](Cc2ccc(-n3cccc3)cc2)C(=O)O)cc1 (stereo partly drawn) [Cpd 32, 4-(1H-pyrrol-1-yl)-N-[[2-[(4-methylphenyl)sulfonyl]-2-azabicyclo[2.2.2]oct-3-yl]carbonyl]-L-phenylalanine] | – | – | – | > 10 | > 5 | – |
| O=C(N[C@@H](CCc1ccccc1)C(=O)O)C1C2CCC(CC2)N1S(=O)(=O)c1ccccc1 (stereo partly drawn) [Cpd 46, α(S)-[[[2-(phenylsulfonyl)-2-azabicyclo[2.2.2]oct-3-yl]carbonyl]amino]-benzenebutanoic acid] | – | – | – | > 10 | > 5 | – |
| Cc1ccc(S(=O)(=O)N2C3CCC(CC3)[C@H]2C(=O)N[C@@H](Cc2ccc(OCc3c(Cl)cccc3Cl)cc2)C(=O)O)cc1 [Cpd 29, 4-[(2,6-dichlorophenyl)methoxy]-N-[[(3S)-2-[[4-methylphenyl)sulfonyl]-2-azabicyclo[2.2.2]oct-3-yl]carbonyl]-L-phenylalanine] | – | – | 0.058 | – | – | 4.94 |
| Cc1ccc(S(=O)(=O)N2C3CCC(CC3)C2C(=O)N[C@@H](Cc2ccc(C#Cc3ccc(C(C)(C)C)cc3)cc2)C(=O)O)cc1 (stereo partly drawn) [Cpd 23, 4-[[4-(1,1-dimethylethyl)phenyl]ethynyl]-N-[[2-[(4-methylphenyl)sulfonyl]-2-azabicyclo[2.2.2]oct-3-yl]carbonyl]-L-phenylalanine] | – | – | 1.42 | > 10 | – | – |
